Measured values from the supplement of paper PMC10307832.

How the values were obtained:
Experiment in all cases: relative viability (nuclei count vs DMSO), 5 days (fraction); higher = more cells survive
Idelalisib + Bortezomib = compound: CC[C@H](Nc1ncnc2[nH]cnc12)c1nc2cccc(F)c2c(=O)n1-c1ccccc1 [Idelalisib] + CC(C)C[C@H](NC(=O)[C@H](Cc1ccccc1)NC(=O)c1cnccn1)B(O)O [Bortezomib] (partner 0.002 µM)
How it was run: (§1)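 Each reported value is a median over duplicate plates. It expresses relative viability: treated-well nuclei count divided by vehicle-well nuclei count. Lung cancer cell lines in 1536-well plates were dosed by pin tool a day after seeding, alone with one drug or with a fixed anchor-drug dose plus five library-drug doses (not always all listed) in √10 steps, and nuclei were counted after 5 days.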

Pemetrexed + Palbociclib = compound: Nc1nc2[nH]cc(CCc3ccc(C(=O)N[C@@H](CCC(=O)O)C(=O)O)cc3)c2c(=O)[nH]1 [Pemetrexed] + CC(=O)c1c(C)c2cnc(Nc3ccc(N4CCNCC4)cn3)nc2n(C2CCCC2)c1=O [Palbociclib] (partner 0.5 µM)
How it was run: as §1

Pemetrexed + Bortezomib = compound: Nc1nc2[nH]cc(CCc3ccc(C(=O)N[C@@H](CCC(=O)O)C(=O)O)cc3)c2c(=O)[nH]1 [Pemetrexed] + CC(C)C[C@H](NC(=O)[C@H](Cc1ccccc1)NC(=O)c1cnccn1)B(O)O [Bortezomib] (partner 0.002 µM)
How it was run: as §1

Pemetrexed + Crizotinib = compound: Nc1nc2[nH]cc(CCc3ccc(C(=O)N[C@@H](CCC(=O)O)C(=O)O)cc3)c2c(=O)[nH]1 [Pemetrexed] + C[C@@H](Oc1cc(-c2cnn(C3CCNCC3)c2)cnc1N)c1c(Cl)ccc(F)c1Cl [Crizotinib] (partner 1 µM)
How it was run: as §1

Cell Line	relative viability (Idelalisib + Bortezomib; first compound 0.04 µM)	relative viability (Idelalisib + Bortezomib; first compound 0.1265 µM)	relative viability (Idelalisib + Bortezomib; first compound 0.4 µM)	relative viability (Idelalisib + Bortezomib; first compound 1.265 µM)	relative viability (Idelalisib + Bortezomib; first compound 4 µM)	relative viability (Pemetrexed + Palbociclib; first compound 0.002 µM)	relative viability (Pemetrexed + Palbociclib; first compound 0.006325 µM)	relative viability (Pemetrexed + Palbociclib; first compound 0.02 µM)	relative viability (Pemetrexed + Palbociclib; first compound 0.06325 µM)	relative viability (Pemetrexed + Palbociclib; first compound 0.2 µM)	relative viability (Pemetrexed + Bortezomib; first compound 0.002 µM)	relative viability (Pemetrexed + Bortezomib; first compound 0.006325 µM)	relative viability (Pemetrexed + Bortezomib; first compound 0.02 µM)	relative viability (Pemetrexed + Bortezomib; first compound 0.06325 µM)	relative viability (Pemetrexed + Bortezomib; first compound 0.2 µM)	relative viability (Pemetrexed + Crizotinib; first compound 0.002 µM)	relative viability (Pemetrexed + Crizotinib; first compound 0.006325 µM)	relative viability (Pemetrexed + Crizotinib; first compound 0.02 µM)	relative viability (Pemetrexed + Crizotinib; first compound 0.06325 µM)	relative viability (Pemetrexed + Crizotinib; first compound 0.2 µM)
NCI-H838	0.835	0.95	0.476	1.03	0.635	0.219	0.223	0.28	0.252	0.173	0.895	0.708	1.07	0.63	0.208	0.83	0.814	1.03	0.935	0.415
NCI-H1755	0.931	0.939	0.937	1.05	0.85	0.488	0.423	0.478	0.448	0.412	0.819	0.952	1.04	1.01	0.867	0.787	0.814	0.897	0.973	0.78
HCC-15	0.998	1.11	0.899	1.1	1.02	0.661	0.712	0.717	0.669	0.309	0.916	0.995	1.12	1.02	0.562	0.747	0.824	0.883	0.775	0.473
NCI-H2087	0.765	1.01	0.787	1.07	0.671	0.161	0.221	0.245	0.217	0.214	0.834	0.639	0.919	1.04	0.523	0.945	0.818	0.912	0.85	0.786
LCLC-103H	1.07	1.24	1.04	1.04	0.911	0.465	0.454	0.496	0.443	0.479	1.08	1.01	1	1.23	1.02	0.94	1.01	1.07	1.08	1.07
NCI-H1650	0.208	0.19	0.239	0.208	0.202	0.284	0.299	0.381	0.247	0.245	0.208	0.208	0.204	0.22	0.2	0.971	0.902	0.939	0.689	0.332
ChaGo-K-1	1.09	0.945	1.01	1.04	1.17	0.959	0.888	0.971	0.668	0.369	1.09	1.11	1.05	0.332	0.307	1.15	1	0.969	0.366	0.344
HCC-78	0.365	0.423	–	0.46	0.266	0.443	0.484	0.441	0.417	0.424	0.369	0.436	0.46	0.294	0.322	–	0.304	0.337	0.25	0.197
NCI-H1666	1.02	0.866	0.742	0.849	0.779	0.666	0.647	0.704	0.674	0.623	0.682	0.752	0.875	0.766	0.421	1.08	0.9	0.986	0.865	0.635
EKVX	1.1	0.986	1.01	0.87	0.808	0.386	0.365	0.407	0.399	0.284	0.939	0.946	0.971	0.979	0.553	0.816	0.841	0.907	0.856	0.508
COR-L 105	0.906	0.92	0.53	1.02	0.713	0.295	0.424	0.399	0.396	0.423	0.842	0.704	1.05	0.924	0.783	0.78	0.75	0.895	0.88	0.75
NCI-H322M	1.13	1.34	1.08	1.16	1.29	0.465	0.458	0.494	0.509	0.462	1.32	1.06	1.22	1.29	1.19	0.886	0.884	1.05	0.912	0.778
HARA	1.27	1.02	1.08	1.2	1.1	0.241	0.277	0.228	0.231	0.234	0.567	1.12	1.17	0.846	0.453	1.27	1.02	1.03	0.98	0.216
NCI-H2023	1.11	1.09	0.681	1.03	0.871	0.347	0.387	0.384	0.323	0.125	0.519	0.912	1.04	0.815	0.304	0.632	0.616	0.685	0.607	0.377
NCI-H1437	0.567	0.532	0.452	0.833	0.37	0.214	0.307	0.303	0.307	0.329	0.31	0.478	0.514	0.313	0.26	0.948	0.854	0.965	0.586	0.281
BEN	0.985	0.709	0.756	0.803	0.732	0.544	0.473	0.531	0.457	0.458	0.838	0.847	1.01	0.855	0.688	0.992	0.859	0.896	0.787	0.715
